Data as given in patent US20250000907A1, “ENGINEERED IMMUNE CELLS WITH REDUCED SIRT6 EXPRESSION” (H. LEE MOFFITT CANCER CENTER AND RESEARCH INSTITUTE, INC., priority 2021, published 2025).

Assays:
[1] = system: human TILs from NSCLC patient tumor samples; assay: Seahorse ECAR of human NSCLC TILs; type: cell-based; details: TILs from 6 NSCLC patients, OSS vs. DMSO
Method: Human tumor infiltrating lymphocytes (hTILs) samples isolated from tumor biopsies of patients with non-small cell lung cancer (NSCLC) were generously provided by Moffitt Cancer Center. All human samples remained totally de-identified and no Institutional Review Board (IRB) approval was needed.
(§1) hTILs were maintained in RPMI 1640 Medium, supplemented with 10% human AB serum (Valley Biomedical, Inc.), 1 mM Hepes (Sigma-Aldrich), 1% P/S (Thomas Scientific Inc), 50 μg/ml Gentamicin (ThermoFisher Scientific), 50μM β-mercaptoethanol (ThermoFisher Scientific) and 6000 U/ml of recombinant human IL-2 (Peprotech). For metabolic and functional assays, hTILs were cultured in completed RPMI medium, IL-2 free, on plate-bound anti-CD3 antibody (5 μg/ml; OKT-3, BioXCell) in the presence of vehicle or OSS (Selleck Chemicals) at the indicated concentrations.
Extracellular acidification rate (ECAR) and oxygen consumption rate (OCR) were measured using the Seahorse XF analyzer (Agilent technologies). […] For GST, ECAR and OCR were measured under basal conditions and in response to 10 mM glucose, 1 μM oligomycin and 50 mM 2-DG successively to calculate basal glycolytic rate, glycolytic capacity (in response to oligomycin), and glycolytic reserve (glycolytic capacity-basal rate). […] Results were normalized to total protein quantified using Pierce™ BCA Protein Assay Kit (Thermo Fisher Scientific).

[2] = system: OT-II and Pmel T cells; assay: CFSE proliferation assay; type: cell-based, mouse; details: upon antigenic stimulation ex vivo, 3 days, FIG. 7A
Method: Pmel cells and OT-II cells were first labelled with 5 μM of CellTrace™ carboxyl fluorescein succinimidyl ester (CFSE, Thermo Fisher Scientific) for 30 min at room temperature (RT) and then stimulated with gp100 or remained non-stimulated with and without Sirt6 inhibitor (OSS) for 3 days.

[3] = system: stimulated CD8+ T cells from WT vs. Sirt2−/− Pmel mice; assay: IFN-γ ELISPOT assay of stimulated CD8+ T cells from WT vs. Sirt2−/− Pmel mice; type: cell-based, mouse; details: FIG. 3C
Method: FIG. 3: Sirtuins in the immune system. A, WB of Sirt1-3,5-7 expression in activated CD3+ T cells from WT vs. Sirt2−/− mice. ECAR measured by Seahorse analyzer (B) and IFN-γ ELISPOT assay (C) in stimulated CD8+ T cells from WT vs. Sirt2−/− Pmel mice treated with vehicle (Ctl), or Sirt6 inhibitor (Sirt6i). *P<0.05, **P<0.01, ****P<0.0001.
(§2) The number of IFN-γ producing cells was evaluated in an ELISPOT assay. Briefly, mouse TILs were plated at 1×10^5 cells and co-cultured with 1×10^3 irradiated B16F10 tumor cells (50 Gray) in the presence of the indicated concentrations of OSS, in a 96-well nitrocellulose flat-bottomed plate (ELISPOT plate, Millipore) pre-coated with an anti-mouse IFN-γ antibody (AN-18, Mabtech, Inc.) and incubated for 48 hr at 37° C. For Pmel T cells, splenocytes were first stimulated with gp100 (1 μg/ml, Anaspec) for 48 hr in the presence of the indicated concentrations of OSS and then transferred to the ELISPOT plate pre-coated with an anti-mouse IFN-γ antibody (AN-18, Mabtech, Inc.) for an additional 48 hr. […] After washing steps and successive biotinylated anti-IFN-γ antibody (R4-6A2, Mabtech, Inc.) and Streptavidin-HRP (BD Bioscience) labeling, spots were detected using AEC Substrate Kit (BD Biosciences) and counted using an AID ELISPOT Reader System (Autoimmun Diagnostika GmbH).

[4] = system: Pmel T cells stimulated with gp100; assay: IFN-γ ELISPOT assay of Pmel T cells; type: cell-based, mouse; details: activated Pmel T cells, OSS vs. DMSO, FIG. 7C
Method: The number of IFN-γ producing cells was evaluated in an ELISPOT assay. Briefly, mouse TILs were plated at 1×10^5 cells and co-cultured with 1×10^3 irradiated B16F10 tumor cells (50 Gray) in the presence of the indicated concentrations of OSS, in a 96-well nitrocellulose flat-bottomed plate (ELISPOT plate, Millipore) pre-coated with an anti-mouse IFN-γ antibody (AN-18, Mabtech, Inc.) and incubated for 48 hr at 37° C. For Pmel T cells, splenocytes were first stimulated with gp100 (1 μg/ml, Anaspec) for 48 hr in the presence of the indicated concentrations of OSS and then transferred to the ELISPOT plate pre-coated with an anti-mouse IFN-γ antibody (AN-18, Mabtech, Inc.) for an additional 48 hr. For human CD3+ T cells and TILs, cells were first stimulated with plate-coated anti-CD3 for 48 hr in the presence of vehicle or OSS at the indicated concentration and then transferred to the ELISPOT plate pre-coated with an anti-human IFN-γ antibody (1-DIK, Mabtech, Inc.). PMA (10 ng/ml, Sigma-Aldrich) was used as positive assay control. After washing steps and successive biotinylated anti-IFN-γ antibody (R4-6A2, Mabtech, Inc.) and Streptavidin-HRP (BD Bioscience) labeling, spots were detected using AEC Substrate Kit (BD Biosciences) and counted using an AID ELISPOT Reader System (Autoimmun Diagnostika GmbH).

[5] = system: human TILs from NSCLC patient tumor samples; assay: IFN-γ ELISPOT assay of human NSCLC TILs; type: cell-based; details: TILs from 6 NSCLC patients, OSS vs. DMSO
Method: as §1
as §2, with “C.” for “C. For Pmel T cells, splenocytes were first stimulated with gp100 (1 μg/ml, Anaspec) for 48 hr in the presence of the indicated concentrations of OSS and then transferred to the ELISPOT plate pre-coated with an anti-mouse IFN-γ antibody (AN-18, Mabtech, Inc.) for an additional 48 hr.”

In the case of `O=C(Nc1ccc(O)c(C(=O)O)c1)c1cccc(NC(=O)c2ccco2)c1` [OSS_128167], the “aerobic glycolysis (basal glycolysis, glycolytic capacity)” value [1] is reported as “increased”, the “proliferation (CFSE dilution)” value [2] is reported as “increased” and the “effect on effector function (IFN-γ ELISPOT) with Sirt2 deficiency” value ([3]; Sirt2−/− Pmel CD8+ T cells) is reported as “potentiated”. The “effector function of T cells (IFN-γ ELISPOT)” value ([3]; activated T cells, Sirt6i vs. vehicle) was “increases”, the IFN-γ release [4] was “increases” and the IFN-γ production [5] was “increased”.
